Data on one compound can be found in paper PMC11536652 (BMC Chemistry, 2024).

Like-named read-outs stand apart in the source and are kept apart here.

A short description of data set [1]: Stability of tepotinib in QC plasma samples. The data set is classed as in vitro ADME, rat.
The conditions of data set [2]: previous study, humans; cited from earlier work.
The conditions of data set [3]: tepotinib 50 mg/kg oral, rat plasma, mean ± SD.

On to `CN1CCC(COc2cnc(-c3cccc(Cn4nc(-c5cccc(C#N)c5)ccc4=O)c3)nc2)CC1` [tepotinib, Tepotinib], for which the “stability maintained (long-term stability)” value in data set [1] (-80 ℃ refrigerator) is recorded as 4 weeks. Moreover, in data set [1] (-80 ℃ to ambient temperature), the “stability maintained over freeze‒thaw cycles” value turned out to be 3 freeze‒thaw cycles. For the same compound, in data set [1] (ambient temperature), the “stability maintained (short-term stability)” value is 3 h. In addition, the “stability maintained in autosampler” value in data set [1] (autosampler (10 ℃)) stood at 6 h. The Tmax in data set [2] was 9 h; in data set [3] (male, Sprague-Dawley, rat, in vivo, po, 50 mg/kg, Tmax, Group A: control (0.5% CMC-Na)) it was 8.8 ± 3.03 h. Also, the CLz/F in data set [3] (Group A: control (0.5% CMC-Na)) came to 10.88 ± 1.04 L/h. The AUC(0-t) in data set [3] (male, Sprague-Dawley, rat, in vivo, po, 50 mg/kg, AUC0→t, Group A: control (0.5% CMC-Na)) stood at 4600 ± 458 ng·h/mL. In addition, the total exposure AUC(0-inf) in data set [3] (male, Sprague-Dawley, rat, in vivo, po, 50 mg/kg, AUC0→∞, Group A: control (0.5% CMC-Na)) came to 4630 ± 454 ng·h/mL. Also, the concentration in data set [3] (male, Sprague-Dawley, rat, in vivo, po, 50 mg/kg, Cmax, Group A: control (0.5% CMC-Na)) peaked (Cmax) at 180 ± 38.2 ng/mL. This compound also showed an MRT last in data set [3] (male, Sprague-Dawley, rat, in vivo, po, 50 mg/kg, MRT0→t, Group A: control (0.5% CMC-Na)) of 18.9 ± 1.21 h. The compound further registered an MRT inf in data set [3] (male, Sprague-Dawley, rat, in vivo, po, 50 mg/kg, MRT0→∞, Group A: control (0.5% CMC-Na)) of 19.4 ± 1.36 h. In data set [3] (male, Sprague-Dawley, rat, in vivo, po, 50 mg/kg, t1/2, Group A: control (0.5% CMC-Na)), this compound had a half-life of 9.4 ± 2.35 h.

By Tmax is commonly meant the time at which the peak concentration occurs. By AUC(0-t) is commonly meant exposure summed from dosing to a finite time, without extrapolation to infinity. The term AUC(0-inf) denotes total exposure, with the tail of the curve extrapolated. The Cmax is the peak of the concentration-time curve. For orientation: MRT last means a mean duration of stay, worked out from the concentration-time curve. The term MRT inf denotes the average time that molecules of a dose stay in the body. The half-life is the time in which the quantity being followed falls by half.
